The values that follow come from ChEMBL document CHEMBL5247649, “Comparative Efficacy and Selectivity of Pharmacological Inhibitors of DYRK and CLK Protein Kinases” (J Med Chem, 2023).

One may read the IC50 as the point on the concentration scale where inhibition reaches its midpoint. As a reminder, the Kd is the free concentration of one partner at which half of the binding sites on the other are occupied at equilibrium, for simple one-to-one binding. Read a low Kd as tighter binding.

For series [1], the target named is Cyclin-dependent kinase 5/CDK5 activator 1 (Homo sapiens, UniProt Q00535). The experiment in a line: biochemical. Type of series: cell-based, Sf9.
In series [2] the target is Casein kinase I isoform epsilon (Homo sapiens, UniProt P49674). The experiment in a line: biochemical. The format is cell-based, Sf9.
Series [3] concerns the target T1, Dual specificity protein kinase CLK1 (Homo sapiens, UniProt P49759). The experiment in a line: biochemical. Type of series: cell-based, Sf9.
The target of series [4] is Dual specificity protein kinase CLK3 (Homo sapiens, UniProt P49761). The experiment in a line: biochemical. The format is cell-based, Sf9.
Series [5] has as its target T2, Dual specificity tyrosine-phosphorylation-regulated kinase 2 (Homo sapiens, UniProt Q92630).
T2 sequence (Q92630 whole entry): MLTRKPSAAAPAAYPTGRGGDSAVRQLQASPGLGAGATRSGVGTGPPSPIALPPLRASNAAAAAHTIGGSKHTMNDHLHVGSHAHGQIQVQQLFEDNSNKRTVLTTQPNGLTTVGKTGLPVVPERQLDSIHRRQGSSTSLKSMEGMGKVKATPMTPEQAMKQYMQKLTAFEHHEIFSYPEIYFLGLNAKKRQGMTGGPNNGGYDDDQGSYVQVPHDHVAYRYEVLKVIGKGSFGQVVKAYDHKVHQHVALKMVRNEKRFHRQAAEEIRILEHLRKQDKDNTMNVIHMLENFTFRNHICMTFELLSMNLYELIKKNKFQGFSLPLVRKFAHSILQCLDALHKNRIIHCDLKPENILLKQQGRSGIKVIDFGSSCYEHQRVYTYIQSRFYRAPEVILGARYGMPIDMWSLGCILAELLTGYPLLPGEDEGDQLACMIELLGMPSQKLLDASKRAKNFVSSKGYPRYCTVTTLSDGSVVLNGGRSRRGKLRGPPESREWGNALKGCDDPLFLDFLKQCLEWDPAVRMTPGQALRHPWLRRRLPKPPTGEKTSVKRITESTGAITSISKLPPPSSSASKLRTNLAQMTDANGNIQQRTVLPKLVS
The experiment in a line: biochemical. The format is cell-based, Sf9.

For series [6], the target named is T3, Dual specificity tyrosine-phosphorylation-regulated kinase 3 (Homo sapiens, UniProt O43781).
T3 sequence (O43781 whole entry): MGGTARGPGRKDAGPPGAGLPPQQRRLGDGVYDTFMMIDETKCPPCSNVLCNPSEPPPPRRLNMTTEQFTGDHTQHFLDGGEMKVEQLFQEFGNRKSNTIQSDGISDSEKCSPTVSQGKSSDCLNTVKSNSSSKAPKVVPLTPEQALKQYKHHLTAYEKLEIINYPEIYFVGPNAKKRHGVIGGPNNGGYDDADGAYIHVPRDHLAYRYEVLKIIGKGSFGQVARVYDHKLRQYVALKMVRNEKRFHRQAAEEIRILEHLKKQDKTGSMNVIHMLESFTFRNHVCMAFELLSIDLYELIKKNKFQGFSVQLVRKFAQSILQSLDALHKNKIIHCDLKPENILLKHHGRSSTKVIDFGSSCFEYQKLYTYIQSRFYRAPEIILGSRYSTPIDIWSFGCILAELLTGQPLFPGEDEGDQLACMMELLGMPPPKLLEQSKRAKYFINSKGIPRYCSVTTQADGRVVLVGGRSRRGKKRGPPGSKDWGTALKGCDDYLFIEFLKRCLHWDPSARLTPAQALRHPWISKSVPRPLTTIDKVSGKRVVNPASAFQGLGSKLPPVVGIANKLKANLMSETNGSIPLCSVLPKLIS
The experiment in a line: biochemical. Type of series: cell-based, Sf9.

For series [7], the target named is T4, Dual specificity tyrosine-phosphorylation-regulated kinase 4 (Homo sapiens, UniProt Q9NR20).
T4 sequence (Q9NR20 whole entry): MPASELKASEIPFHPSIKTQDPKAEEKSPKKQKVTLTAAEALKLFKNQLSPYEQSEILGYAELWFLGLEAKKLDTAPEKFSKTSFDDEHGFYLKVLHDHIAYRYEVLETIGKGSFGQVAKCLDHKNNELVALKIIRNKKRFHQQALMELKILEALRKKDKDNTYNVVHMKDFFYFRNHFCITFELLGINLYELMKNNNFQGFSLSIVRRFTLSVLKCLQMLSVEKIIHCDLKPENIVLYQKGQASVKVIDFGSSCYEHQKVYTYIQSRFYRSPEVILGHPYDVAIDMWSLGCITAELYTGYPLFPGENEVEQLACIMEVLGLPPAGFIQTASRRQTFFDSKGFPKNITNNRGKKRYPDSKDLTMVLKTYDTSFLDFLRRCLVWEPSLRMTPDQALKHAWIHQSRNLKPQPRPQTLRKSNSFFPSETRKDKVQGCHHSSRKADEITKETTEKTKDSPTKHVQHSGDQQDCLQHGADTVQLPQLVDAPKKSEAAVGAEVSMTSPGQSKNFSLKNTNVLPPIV
The experiment in a line: biochemical. The format is cell-based, Sf9.

The target in series [8] is T5, Glycogen synthase kinase-3 beta (Homo sapiens, UniProt P49841). The experiment in a line: biochemical. The format is cell-based, Sf9.
A further series is described as follows: in vitro. To be noted: mouse, ht-22.
The target of series [9] is Dual specificity protein kinase CLK2 (Homo sapiens, UniProt P49760). The experiment in a line: biochemical.
For series [10], the target named is Dual specificity protein kinase CLK4 (Homo sapiens, UniProt Q9HAZ1). The experiment in a line: biochemical.
Series [11] has as its target Dual specificity tyrosine-phosphorylation-regulated kinase 1A (Homo sapiens, UniProt Q13627). The experiment in a line: biochemical.
The target of series [12] is T1, Dual specificity protein kinase CLK1. The experiment in a line: biochemical. Type of series: cell-based, Sf9. To be noted: read-out: IC50.
The target is the same in series [13].
Series [14] deals with T5, Glycogen synthase kinase-3 beta.

Where only a bound is given, the exact number is not on record here.

Sequence of Dual specificity protein kinase CLK2 (P49760 whole entry): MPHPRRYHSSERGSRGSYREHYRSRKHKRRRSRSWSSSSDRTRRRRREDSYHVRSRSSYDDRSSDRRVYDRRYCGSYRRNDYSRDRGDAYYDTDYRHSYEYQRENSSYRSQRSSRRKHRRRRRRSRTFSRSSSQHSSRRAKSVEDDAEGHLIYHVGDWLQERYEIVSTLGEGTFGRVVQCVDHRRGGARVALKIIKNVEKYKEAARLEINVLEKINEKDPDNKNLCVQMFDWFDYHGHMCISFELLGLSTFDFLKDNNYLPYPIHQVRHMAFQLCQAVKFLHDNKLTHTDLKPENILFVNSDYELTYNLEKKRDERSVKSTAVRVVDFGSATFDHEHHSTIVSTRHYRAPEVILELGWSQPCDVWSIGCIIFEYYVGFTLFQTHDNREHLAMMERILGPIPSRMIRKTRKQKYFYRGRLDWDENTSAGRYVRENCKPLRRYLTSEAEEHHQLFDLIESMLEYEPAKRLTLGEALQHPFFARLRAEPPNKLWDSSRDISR
T1 sequence (P49759 whole entry): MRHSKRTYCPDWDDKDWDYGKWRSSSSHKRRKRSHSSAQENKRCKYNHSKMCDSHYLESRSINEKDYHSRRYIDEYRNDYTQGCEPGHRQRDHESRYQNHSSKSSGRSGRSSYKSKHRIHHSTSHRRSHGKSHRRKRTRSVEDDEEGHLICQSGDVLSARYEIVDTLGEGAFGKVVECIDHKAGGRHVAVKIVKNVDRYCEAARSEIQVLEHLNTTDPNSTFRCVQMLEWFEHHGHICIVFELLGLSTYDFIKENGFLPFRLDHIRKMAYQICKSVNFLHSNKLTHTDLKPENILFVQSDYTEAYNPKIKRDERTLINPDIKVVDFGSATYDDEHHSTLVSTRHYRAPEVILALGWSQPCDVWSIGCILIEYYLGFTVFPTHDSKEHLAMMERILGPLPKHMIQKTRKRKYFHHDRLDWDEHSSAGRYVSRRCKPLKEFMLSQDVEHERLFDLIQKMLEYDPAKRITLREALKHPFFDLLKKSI
T5 sequence (P49841 whole entry): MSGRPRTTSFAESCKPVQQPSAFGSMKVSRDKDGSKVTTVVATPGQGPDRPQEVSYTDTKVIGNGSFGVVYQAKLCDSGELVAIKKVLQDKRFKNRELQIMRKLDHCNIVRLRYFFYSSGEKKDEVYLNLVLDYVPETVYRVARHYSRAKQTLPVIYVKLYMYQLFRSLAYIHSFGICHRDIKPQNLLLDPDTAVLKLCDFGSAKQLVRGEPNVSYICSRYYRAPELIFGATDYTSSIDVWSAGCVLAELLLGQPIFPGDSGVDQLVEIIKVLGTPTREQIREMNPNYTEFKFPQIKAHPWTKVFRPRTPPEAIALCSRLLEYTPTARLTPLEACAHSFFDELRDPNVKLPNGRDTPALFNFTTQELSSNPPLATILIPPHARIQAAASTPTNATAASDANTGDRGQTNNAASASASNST
Sequence of Cyclin-dependent kinase 5/CDK5 activator 1 (Q00535 whole entry, canonical isoform): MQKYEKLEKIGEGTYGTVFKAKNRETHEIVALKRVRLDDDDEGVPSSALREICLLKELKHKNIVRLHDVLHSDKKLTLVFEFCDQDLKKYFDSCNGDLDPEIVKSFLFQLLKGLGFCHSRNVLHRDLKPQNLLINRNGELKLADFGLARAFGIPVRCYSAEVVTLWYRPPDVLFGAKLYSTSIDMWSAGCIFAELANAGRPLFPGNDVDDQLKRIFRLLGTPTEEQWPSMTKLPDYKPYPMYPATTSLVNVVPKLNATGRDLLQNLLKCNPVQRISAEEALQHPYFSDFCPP
Sequence of Cyclin-dependent kinase 5/CDK5 activator 1 (Q15078 whole entry, further chain, canonical isoform): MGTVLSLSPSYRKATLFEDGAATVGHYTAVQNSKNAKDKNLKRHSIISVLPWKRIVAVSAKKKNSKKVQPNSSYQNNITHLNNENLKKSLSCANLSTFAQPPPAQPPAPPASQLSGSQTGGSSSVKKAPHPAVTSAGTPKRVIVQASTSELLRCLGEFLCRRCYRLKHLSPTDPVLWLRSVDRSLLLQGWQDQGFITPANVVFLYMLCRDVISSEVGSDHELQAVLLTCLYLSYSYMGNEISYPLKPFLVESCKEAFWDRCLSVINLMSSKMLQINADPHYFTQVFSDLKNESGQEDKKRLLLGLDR
Sequence of Dual specificity protein kinase CLK3 (P49761 whole entry): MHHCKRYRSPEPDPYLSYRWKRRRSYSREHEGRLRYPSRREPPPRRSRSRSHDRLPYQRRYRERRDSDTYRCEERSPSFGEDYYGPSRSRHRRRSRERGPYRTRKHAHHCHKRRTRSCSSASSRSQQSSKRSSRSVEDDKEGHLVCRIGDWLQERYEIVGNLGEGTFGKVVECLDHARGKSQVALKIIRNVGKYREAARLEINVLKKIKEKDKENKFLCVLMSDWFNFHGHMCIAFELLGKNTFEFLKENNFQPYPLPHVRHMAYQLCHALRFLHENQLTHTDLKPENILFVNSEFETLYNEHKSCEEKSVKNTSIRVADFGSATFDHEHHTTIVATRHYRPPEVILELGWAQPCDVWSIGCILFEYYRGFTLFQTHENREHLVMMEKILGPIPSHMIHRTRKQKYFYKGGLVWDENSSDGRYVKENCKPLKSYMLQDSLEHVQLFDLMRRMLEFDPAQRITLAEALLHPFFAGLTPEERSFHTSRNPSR
Sequence of Casein kinase I isoform epsilon (P49674 whole entry, canonical isoform): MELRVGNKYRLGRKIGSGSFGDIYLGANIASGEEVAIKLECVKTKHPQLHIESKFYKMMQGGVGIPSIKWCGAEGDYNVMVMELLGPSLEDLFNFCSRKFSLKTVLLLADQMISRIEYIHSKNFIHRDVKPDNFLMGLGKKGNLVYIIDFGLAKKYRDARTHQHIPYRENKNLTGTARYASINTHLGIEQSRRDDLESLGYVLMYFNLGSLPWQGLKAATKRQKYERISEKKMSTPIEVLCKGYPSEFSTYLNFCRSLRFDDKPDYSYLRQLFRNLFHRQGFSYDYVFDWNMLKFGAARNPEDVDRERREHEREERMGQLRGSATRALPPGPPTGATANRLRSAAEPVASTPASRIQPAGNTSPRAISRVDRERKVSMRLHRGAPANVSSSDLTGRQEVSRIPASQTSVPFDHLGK
Sequence of Dual specificity protein kinase CLK4 (Q9HAZ1 whole entry): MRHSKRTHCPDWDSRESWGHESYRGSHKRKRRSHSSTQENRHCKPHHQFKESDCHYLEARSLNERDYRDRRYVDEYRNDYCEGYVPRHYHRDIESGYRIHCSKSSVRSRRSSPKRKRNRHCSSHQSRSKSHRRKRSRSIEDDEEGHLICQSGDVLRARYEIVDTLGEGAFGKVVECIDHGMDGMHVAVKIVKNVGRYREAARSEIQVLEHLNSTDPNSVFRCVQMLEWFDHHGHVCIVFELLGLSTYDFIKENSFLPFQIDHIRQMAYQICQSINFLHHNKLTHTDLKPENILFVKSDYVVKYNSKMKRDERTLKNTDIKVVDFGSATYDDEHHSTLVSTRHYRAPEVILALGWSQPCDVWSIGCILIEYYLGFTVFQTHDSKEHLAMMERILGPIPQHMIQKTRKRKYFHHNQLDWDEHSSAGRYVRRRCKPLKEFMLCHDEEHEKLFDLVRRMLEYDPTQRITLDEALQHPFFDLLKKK

For the compound `CC(=O)c1nccc2c1[nH]c1ccccc12`, the IC50 in series [1], in series [2], in [3], in [4], in [5] and in series [6] was > 10000 nM in each case. Moreover, the IC50 in series [7], in series [8], in series [9], in series [10] and in series [11] was > 10000 nM in each case. Also, the IC50 at 48 h in “in vitro” is > 100000 nM.

As to `Cc1ccc([N+](=O)[O-])cc1S(=O)(=O)N(C)/N=C/c1cnc2ccc(Br)cn12`, the IC50 stood at 24.5 nM in [1]; 405 nM in series [2]; 18.8 nM in [3]; 11.9 nM in series [4]; 118 nM in series [5]; 10.4 nM in [6]. Also, the IC50 in [7] was found to be 2590 nM; in [8], 17.6 nM; in series [12], 30.8 nM; in series [9], 1.1 nM; in series [10], 6.9 nM. In addition, the Kd was determined as 0.056 nM in [13] and 3.93 nM in [14]. This compound displayed an IC50 at 48 h in “in vitro” of 160 nM.

Regarding `Oc1ccc(-c2cnc3[nH]cc(-c4ccc(F)cc4)c3c2)cc1O`, the half-maximal inhibitory concentration (IC50) was > 10000 nM in series [1]; > 10000 nM in [2]; 570 nM in [3]; > 10000 nM in series [4]; 3350 nM in series [5]; > 10000 nM in series [6]. Further, the IC50 is > 10000 nM in series [7]; > 10000 nM in series [8]; 180 nM in series [12]; 1990 nM in series [9]; 890 nM in series [10]. Besides, the Kd was 70.8 nM in [13] and > 10000 nM in [14]. In addition, the IC50 at 48 h in “in vitro” came to 9000 nM.

For `Cc1cccc(N(C)c2nccc(-c3cnn4ncccc34)n2)c1`, the IC50 in [1] is > 10000 nM; in [2], > 10000 nM; in series [3] it was 125 nM; in [4], > 10000 nM; in series [5] it was > 10000 nM; in series [6], > 10000 nM. Besides, the 50% inhibitory concentration (IC50) in series [7] is > 10000 nM; in series [8], > 10000 nM; in series [9], 269 nM; in series [10], 90.9 nM; in [11], 435 nM. The same compound displayed an IC50 at 48 h in the series “in vitro” of 30100 nM.

As to `Cn1cc(-c2ccc3occ(-c4cccc(-c5ccncc5)c4)c3n2)cn1`, the IC50 in series [1] is > 10000 nM; in series [2], > 10000 nM; in series [5], 3040 nM; in series [6], > 10000 nM; in series [7], > 10000 nM; in series [8], 2860 nM. Further, the half-maximal inhibitory concentration (IC50) turned out to be 83.9 nM in [10] and 1140 nM in series [11]. Also, the IC50 at 48 h in “in vitro” came out at 2600 nM.

With `Oc1ccc(-c2n[nH]c3ncc(-c4ccc(O)c(O)c4)cc23)cc1`, the IC50 in [1] was determined as 38.4 nM; in [2], 38.9 nM; in [3], 10.4 nM; in series [4], 207 nM; in series [5] it was 32.9 nM; in [6], 71.9 nM. Moreover, the IC50 came out at 26.8 nM in [7]; 159 nM in series [8]; 37.9 nM in [12]; 14.3 nM in series [9]; 4.7 nM in [10]. Further, the Kd was 1.31 nM in series [13] and 260 nM in series [14]. In “in vitro”, this compound displayed an IC50 at 48 h of 5500 nM.

As to `O=C1NC(=Nc2c(Cl)cccc2Cl)S/C1=C\c1ccc2nccnc2c1`, the IC50 in series [1] was > 10000 nM; in [2], 1770 nM; in [3] it was 21.1 nM; in [4], 92.6 nM; in series [5], 15.6 nM; in [6], 22.7 nM. Moreover, the IC50 turned out to be 108 nM in series [7]; 3090 nM in [8]; 13.6 nM in series [12]; 95.3 nM in series [9]; 14 nM in series [10]. Moreover, the dissociation constant Kd in series [13] was 0.395 nM; in series [14] it was 939 nM. The same compound came in with a half-inhibitory concentration (IC50) at 48 h in “in vitro” of 27800 nM.

As to `Cc1cc(C(=O)NC2Nc3cccc(C)c3N2[C@H]2CCCCN(C(=O)/C=C/CN(C)C)C2)ccn1` (stereo partly specified), the IC50 in series [1], in [2], in series [3], in [4], in series [5] and in series [6] was > 10000 nM in each case. In addition, the IC50 in [7] is > 10000 nM; in series [8], 5260 nM; in [9], 5960 nM; in [10] it was > 10000 nM; in [11], > 10000 nM. Also, in the series “in vitro”, half-maximal inhibition (IC50 at 48 h) required 60000 nM.

Take `CCNc1cc(Nc2ccc(C(=O)N3CCC(N4CCOCC4)CC3)cc2OC)nc2[nH]cc(C(F)(F)F)c12`: the IC50 in series [1] was > 10000 nM; in series [2], 7990 nM; in series [3] it was 71.3 nM; in series [4], 2050 nM; in series [5] it was > 10000 nM; in series [6] it was 7150 nM. Besides, the IC50 in series [7] is > 10000 nM; in series [8], > 10000 nM; in series [12], 92.9 nM; in series [9] it was 40.5 nM; in [10] it was 21.1 nM. Moreover, the equilibrium dissociation constant (Kd) was 1.39 nM in [13] and > 10000 nM in series [14]. Besides, 19900 nM corresponded to half-maximal inhibition in “in vitro” (IC50 at 48 h).

`O=C1Nc2cc(S(=O)(=O)Cc3c(Cl)cccc3Cl)ccc2S/C1=C\c1ccc(O)c([N+](=O)[O-])c1`: the IC50 in series [1] was > 10000 nM; in series [2] it was 4380 nM; in series [3], 6070 nM; in series [4] it was > 10000 nM; in series [5] it was 1750 nM; in series [6], > 10000 nM. Besides, the IC50 was > 10000 nM in [7]; > 10000 nM in [8]; > 10000 nM in series [9]; > 10000 nM in [10]; 3090 nM in [11]. Besides, half-maximal inhibition in “in vitro” (IC50 at 48 h) required 1000 nM.

Consider `COc1cc(/C=C/C(=O)CC(=O)/C=C/c2ccc(O)c(OC)c2)ccc1O` [CURCUMIN], for which the concentration for half-maximal inhibition (IC50) in [1] is > 10000 nM; in [2], > 10000 nM; in series [3] it was > 10000 nM; in series [4] it was > 10000 nM; in series [5], 1060 nM; in series [6], 4260 nM. In addition, the IC50 in series [7] was > 10000 nM; in [8] it was > 10000 nM; in series [12] it was 4920 nM; in series [9], > 10000 nM; in series [10], 9750 nM. Also, the equilibrium dissociation constant (Kd) in [13] was > 1000 nM; in [14] it was > 10000 nM. This compound gave a 50% inhibitory concentration (IC50) at 48 h in the series “in vitro” of 52400 nM.
